Source: ChEMBL document CHEMBL1909046, “DrugMatrix in vitro pharmacology data”

Tests used:
Substance-P receptor = Substance-P receptor (Homo sapiens, UniProt P25103); type: cell membranes, CHO, Membrane; details: cho; further: in other assays of this panel Not Active means under 50% inhibition at 10 µM
[1] = biological target: T1, C-C chemokine receptor type 4 (Homo sapiens, UniProt P51679); type: cell membranes, Membrane; details: chem-1; further: in other assays of this panel Not Active means under 50% inhibition at 10 µM
T1 sequence (P51679 whole entry): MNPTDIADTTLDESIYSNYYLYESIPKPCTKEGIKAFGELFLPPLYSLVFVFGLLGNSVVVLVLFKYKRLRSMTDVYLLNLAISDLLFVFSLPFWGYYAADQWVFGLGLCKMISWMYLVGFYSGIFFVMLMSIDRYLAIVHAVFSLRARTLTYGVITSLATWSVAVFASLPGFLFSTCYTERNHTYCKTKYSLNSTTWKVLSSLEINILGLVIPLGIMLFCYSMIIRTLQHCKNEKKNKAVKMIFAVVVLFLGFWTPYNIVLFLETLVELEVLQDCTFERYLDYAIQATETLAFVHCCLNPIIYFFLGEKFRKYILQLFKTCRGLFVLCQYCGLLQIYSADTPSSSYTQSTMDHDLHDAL

Interstitial collagenase = biological target: T2, Interstitial collagenase (Homo sapiens, UniProt P03956); assay: biochemical; type: tissue-based, Rheumatoid synovial fibroblasts;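 further: MMP-1 enzyme inhibition assay using a peptide substrate; in other assays of this panel Not Active means under 50% inhibition at 10 µM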
T2 sequence (P03956 whole entry): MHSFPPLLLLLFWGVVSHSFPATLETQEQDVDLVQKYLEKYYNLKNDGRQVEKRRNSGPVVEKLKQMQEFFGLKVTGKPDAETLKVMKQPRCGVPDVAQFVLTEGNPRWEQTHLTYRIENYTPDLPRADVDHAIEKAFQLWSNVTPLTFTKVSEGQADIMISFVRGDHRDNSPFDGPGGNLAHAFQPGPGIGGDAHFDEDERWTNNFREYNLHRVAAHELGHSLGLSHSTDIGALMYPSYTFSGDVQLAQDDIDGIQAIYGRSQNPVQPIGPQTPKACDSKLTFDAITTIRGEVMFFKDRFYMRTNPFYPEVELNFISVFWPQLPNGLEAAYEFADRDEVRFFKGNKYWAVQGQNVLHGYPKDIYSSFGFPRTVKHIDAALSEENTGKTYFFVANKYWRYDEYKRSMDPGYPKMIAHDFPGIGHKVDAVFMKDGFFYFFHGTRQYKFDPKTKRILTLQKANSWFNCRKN

Substance-K receptor = biological target: T3, Substance-K receptor (Homo sapiens, UniProt P21452); type: cell membranes, CHO, Membrane; details: cho; further: in other assays of this panel Not Active means under 50% inhibition at 10 µM
T3 sequence (P21452 whole entry): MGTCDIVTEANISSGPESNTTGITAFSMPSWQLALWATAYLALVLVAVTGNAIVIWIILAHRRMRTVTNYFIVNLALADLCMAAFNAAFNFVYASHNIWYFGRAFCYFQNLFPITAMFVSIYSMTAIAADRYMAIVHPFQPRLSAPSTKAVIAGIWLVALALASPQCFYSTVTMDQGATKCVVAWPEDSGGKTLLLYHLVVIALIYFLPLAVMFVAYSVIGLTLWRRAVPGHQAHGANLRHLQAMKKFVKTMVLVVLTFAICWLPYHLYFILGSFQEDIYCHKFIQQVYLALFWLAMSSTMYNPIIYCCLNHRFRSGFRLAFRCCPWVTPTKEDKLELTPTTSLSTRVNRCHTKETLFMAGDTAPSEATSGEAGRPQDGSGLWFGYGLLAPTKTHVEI

[2] = DRUGMATRIX: Sodium/nucleoside co-transporter radioligand binding (ligand: nitrobenzylthioinosine); type: cell membranes, Cavia porcellus, Dunkin-Hartley, Cerebral cortex, Membrane; details: Not Active = under 50% inhibition at 10 µM
Cytochrome P450 2C19 = Cytochrome P450 2C19 (Homo sapiens, UniProt P33261); details: bti-tn-5b1-4; further: in other assays of this panel Not Active means under 50% inhibition at 10 µM
Thromboxane-A synthase = biological target: T4, Thromboxane-A synthase (Homo sapiens, UniProt P24557); assay: biochemical; type: tissue-based, Platelet; details: platelet
T4 sequence (P24557 whole entry): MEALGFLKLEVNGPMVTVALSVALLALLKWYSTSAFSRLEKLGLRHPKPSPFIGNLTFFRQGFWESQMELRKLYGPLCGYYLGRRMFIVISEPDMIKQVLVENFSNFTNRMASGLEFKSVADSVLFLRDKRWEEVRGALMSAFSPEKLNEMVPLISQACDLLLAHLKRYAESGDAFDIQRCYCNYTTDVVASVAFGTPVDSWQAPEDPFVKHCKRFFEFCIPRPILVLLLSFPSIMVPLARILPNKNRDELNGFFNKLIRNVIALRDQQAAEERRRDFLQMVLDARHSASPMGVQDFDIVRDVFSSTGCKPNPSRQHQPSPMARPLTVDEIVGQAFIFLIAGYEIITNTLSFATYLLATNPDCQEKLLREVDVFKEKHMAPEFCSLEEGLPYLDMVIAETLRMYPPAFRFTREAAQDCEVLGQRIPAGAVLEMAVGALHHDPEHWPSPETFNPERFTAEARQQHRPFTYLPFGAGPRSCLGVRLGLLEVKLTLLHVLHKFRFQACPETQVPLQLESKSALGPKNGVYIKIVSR

Cytochrome P450 3A4 = Cytochrome P450 3A4 (Homo sapiens, UniProt P08684); details: bti-tn-5b1-4; further: in other assays of this panel Not Active means under 50% inhibition at 10 µM
Cytochrome P450 3A4, sequence (P08684 whole entry): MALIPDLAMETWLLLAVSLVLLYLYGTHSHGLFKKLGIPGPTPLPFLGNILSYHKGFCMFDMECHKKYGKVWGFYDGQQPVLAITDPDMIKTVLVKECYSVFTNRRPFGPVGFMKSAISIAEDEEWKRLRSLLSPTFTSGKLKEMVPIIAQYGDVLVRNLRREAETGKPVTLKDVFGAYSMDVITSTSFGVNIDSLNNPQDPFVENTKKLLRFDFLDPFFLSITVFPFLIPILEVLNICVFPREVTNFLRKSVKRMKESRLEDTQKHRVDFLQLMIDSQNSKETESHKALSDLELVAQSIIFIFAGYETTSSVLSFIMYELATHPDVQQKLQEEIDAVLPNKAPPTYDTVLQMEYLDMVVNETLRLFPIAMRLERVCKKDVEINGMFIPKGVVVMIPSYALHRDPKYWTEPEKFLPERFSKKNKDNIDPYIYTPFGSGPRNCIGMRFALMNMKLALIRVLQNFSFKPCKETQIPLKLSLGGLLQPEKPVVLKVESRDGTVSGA

Substance-P receptor, sequence (P25103 whole entry): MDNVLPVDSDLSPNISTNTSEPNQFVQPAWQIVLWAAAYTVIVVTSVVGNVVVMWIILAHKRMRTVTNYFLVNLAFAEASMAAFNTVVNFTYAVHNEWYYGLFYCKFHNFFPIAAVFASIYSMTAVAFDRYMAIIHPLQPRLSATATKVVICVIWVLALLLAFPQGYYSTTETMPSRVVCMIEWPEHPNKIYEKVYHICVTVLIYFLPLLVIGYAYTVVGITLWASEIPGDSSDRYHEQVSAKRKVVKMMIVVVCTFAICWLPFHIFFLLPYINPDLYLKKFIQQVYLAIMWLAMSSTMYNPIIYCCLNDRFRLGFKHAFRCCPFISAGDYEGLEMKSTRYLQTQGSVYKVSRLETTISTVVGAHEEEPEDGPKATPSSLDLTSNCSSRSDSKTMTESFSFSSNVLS
Cytochrome P450 2C19, sequence (P33261 whole entry): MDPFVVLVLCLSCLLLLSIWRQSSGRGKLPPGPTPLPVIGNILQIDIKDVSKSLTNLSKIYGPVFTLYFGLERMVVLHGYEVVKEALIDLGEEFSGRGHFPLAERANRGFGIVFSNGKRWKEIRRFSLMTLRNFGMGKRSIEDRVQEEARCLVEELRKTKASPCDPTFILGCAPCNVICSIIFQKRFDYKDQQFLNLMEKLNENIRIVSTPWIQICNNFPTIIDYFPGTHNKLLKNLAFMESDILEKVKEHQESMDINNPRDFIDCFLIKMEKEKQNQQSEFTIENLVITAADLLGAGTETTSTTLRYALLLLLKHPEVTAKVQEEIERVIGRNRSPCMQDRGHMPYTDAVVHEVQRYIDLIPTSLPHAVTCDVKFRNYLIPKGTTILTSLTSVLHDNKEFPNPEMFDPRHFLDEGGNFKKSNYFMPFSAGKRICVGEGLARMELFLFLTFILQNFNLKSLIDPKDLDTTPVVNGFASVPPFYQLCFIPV

O=C(O)CCCc1cccs1
Not Active: IC50 (Substance-P receptor) | IC50 [1] | IC50 (Interstitial collagenase) | IC50 (Substance-K receptor) | IC50 [2] | Ki [2] | IC50 (Cytochrome P450 2C19) | Ki (Cytochrome P450 2C19) | IC50 (Thromboxane-A synthase) | IC50 (Cytochrome P450 3A4) | Ki (Cytochrome P450 3A4)

Cc1ccc(C)c(OCCCC(C)(C)C(=O)O)c1 [GEMFIBROZIL]
Not Active: IC50 (Substance-P receptor) | IC50 [1] | IC50 (Interstitial collagenase) | IC50 (Substance-K receptor) | IC50 [2] | Ki [2] | IC50 (Cytochrome P450 2C19) | Ki (Cytochrome P450 2C19) | IC50 (Thromboxane-A synthase) | IC50 (Cytochrome P450 3A4) | Ki (Cytochrome P450 3A4)

O=C(O)CCNC(=O)c1ccc(/N=N/c2ccc(O)c(C(=O)O)c2)cc1 [BALSALAZIDE]
Not Active: IC50 (Substance-P receptor) | IC50 [1] | IC50 (Interstitial collagenase) | IC50 (Substance-K receptor) | IC50 [2] | Ki [2] | IC50 (Cytochrome P450 2C19) | Ki (Cytochrome P450 2C19) | IC50 (Thromboxane-A synthase) | IC50 (Cytochrome P450 3A4) | Ki (Cytochrome P450 3A4)

C[S+](C)[O-] [DIMETHYL SULFOXIDE]
Not Active: IC50 (Substance-P receptor) | IC50 [1] | IC50 (Interstitial collagenase) | IC50 (Substance-K receptor) | IC50 [2] | Ki [2] | IC50 (Cytochrome P450 2C19) | Ki (Cytochrome P450 2C19) | IC50 (Thromboxane-A synthase) | IC50 (Cytochrome P450 3A4) | Ki (Cytochrome P450 3A4)

COC(=O)Nc1nc2cc(C(=O)c3ccc(F)cc3)ccc2[nH]1 [FLUBENDAZOLE]
Not Active: IC50 (Substance-P receptor) | IC50 [1] | IC50 (Interstitial collagenase) | IC50 (Substance-K receptor) | IC50 [2] | Ki [2] | IC50 (Cytochrome P450 2C19) | Ki (Cytochrome P450 2C19) | IC50 (Thromboxane-A synthase) | IC50 (Cytochrome P450 3A4) | Ki (Cytochrome P450 3A4)

COc1ccnc(C[S+]([O-])c2nc3ccc(OC(F)F)cc3[nH]2)c1OC (centres undefined) [PANTOPRAZOLE]
Not Active: IC50 (Substance-P receptor) | IC50 [1] | IC50 (Interstitial collagenase) | IC50 (Substance-K receptor) | IC50 [2] | Ki [2] | IC50 (Cytochrome P450 2C19) | Ki (Cytochrome P450 2C19) | IC50 (Thromboxane-A synthase) | IC50 (Cytochrome P450 3A4) | Ki (Cytochrome P450 3A4)

CCc1ccc(CCOc2ccc(CC3SC(=O)NC3=O)cc2)nc1 (centres undefined) [PIOGLITAZONE]
Not Active: IC50 (Substance-P receptor) | IC50 [1] | IC50 (Interstitial collagenase) | IC50 (Substance-K receptor) | IC50 [2] | Ki [2] | IC50 (Cytochrome P450 2C19) | Ki (Cytochrome P450 2C19) | IC50 (Thromboxane-A synthase) | IC50 (Cytochrome P450 3A4) | Ki (Cytochrome P450 3A4)

CC[C@H]1[C@@H]2C[C@H]3[C@@H]4N(C)c5ccccc5[C@]45C[C@@H]([C@@H]2[C@H]5O)N3[C@@H]1O [AJMALINE]
Not Active: IC50 (Substance-P receptor) | IC50 [1] | IC50 (Interstitial collagenase) | IC50 (Substance-K receptor) | IC50 [2] | Ki [2] | IC50 (Cytochrome P450 2C19) | Ki (Cytochrome P450 2C19) | IC50 (Thromboxane-A synthase) | IC50 (Cytochrome P450 3A4) | Ki (Cytochrome P450 3A4)

CNC1=Nc2ccc(Cl)cc2C(c2ccccc2)=[N+]([O-])C1 [CHLORDIAZEPOXIDE]
Not Active: IC50 (Substance-P receptor) | IC50 [1] | IC50 (Interstitial collagenase) | IC50 (Substance-K receptor) | IC50 [2] | Ki [2] | IC50 (Cytochrome P450 2C19) | Ki (Cytochrome P450 2C19) | IC50 (Thromboxane-A synthase) | IC50 (Cytochrome P450 3A4) | Ki (Cytochrome P450 3A4)

C[C@@H]1O[C@@H](O[C@H]2C[C@@H](O)[C@]3(CO)[C@H]4[C@H](O)C[C@]5(C)[C@@H](C6=CC(=O)OC6)CC[C@]5(O)[C@@H]4CC[C@]3(O)C2)[C@H](O)[C@H](O)[C@H]1O [OUABAIN]
Not Active: IC50 (Substance-P receptor) | IC50 [1] | IC50 (Interstitial collagenase) | IC50 (Substance-K receptor) | IC50 [2] | Ki [2] | IC50 (Cytochrome P450 2C19) | Ki (Cytochrome P450 2C19) | IC50 (Thromboxane-A synthase) | IC50 (Cytochrome P450 3A4) | Ki (Cytochrome P450 3A4)

Cc1cccc(C)c1NC(=O)C1CCCCN1C (centres undefined) [MEPIVACAINE]
Not Active: IC50 (Substance-P receptor) | IC50 [1] | IC50 (Interstitial collagenase) | IC50 (Substance-K receptor) | IC50 [2] | Ki [2] | IC50 (Cytochrome P450 2C19) | Ki (Cytochrome P450 2C19) | IC50 (Thromboxane-A synthase) | IC50 (Cytochrome P450 3A4) | Ki (Cytochrome P450 3A4)

CC1=NN(c2ccccc2)C(=O)C1 [EDARAVONE]
Not Active: IC50 (Substance-P receptor) | IC50 [1] | IC50 (Interstitial collagenase) | IC50 (Substance-K receptor) | IC50 [2] | Ki [2] | IC50 (Cytochrome P450 2C19) | Ki (Cytochrome P450 2C19) | IC50 (Thromboxane-A synthase) | IC50 (Cytochrome P450 3A4) | Ki (Cytochrome P450 3A4)

Cc1cc(O)cc(C)c1Cl [CHLOROXYLENOL]
Not Active: IC50 (Substance-P receptor) | IC50 [1] | IC50 (Interstitial collagenase) | IC50 (Substance-K receptor) | IC50 [2] | Ki [2] | IC50 (Cytochrome P450 2C19) | Ki (Cytochrome P450 2C19) | IC50 (Thromboxane-A synthase) | IC50 (Cytochrome P450 3A4) | Ki (Cytochrome P450 3A4)

CCOC(=O)c1ncn2c1CN(C)C(=O)c1cc(F)ccc1-2 [FLUMAZENIL]
Not Active: IC50 (Substance-P receptor) | IC50 [1] | IC50 (Interstitial collagenase) | IC50 (Substance-K receptor) | IC50 [2] | Ki [2] | IC50 (Cytochrome P450 2C19) | Ki (Cytochrome P450 2C19) | IC50 (Thromboxane-A synthase) | IC50 (Cytochrome P450 3A4) | Ki (Cytochrome P450 3A4)

COBALTOUS CHLORIDE
Not Active: IC50 (Substance-P receptor) | Ki (Substance-P receptor) | IC50 [1] | Ki [1] | IC50 (Interstitial collagenase) | Ki (Interstitial collagenase) | IC50 (Substance-K receptor) | Ki (Substance-K receptor) | IC50 [2] | Ki [2] | IC50 (Cytochrome P450 2C19) | Ki (Cytochrome P450 2C19) | IC50 (Thromboxane-A synthase) | Ki (Thromboxane-A synthase) | IC50 (Cytochrome P450 3A4) | Ki (Cytochrome P450 3A4)

COLISTIN
Not Active: IC50 (Substance-P receptor) | Ki (Substance-P receptor) | IC50 [1] | Ki [1] | IC50 (Interstitial collagenase) | Ki (Interstitial collagenase) | IC50 (Substance-K receptor) | Ki (Substance-K receptor) | IC50 [2] | Ki [2] | IC50 (Cytochrome P450 2C19) | Ki (Cytochrome P450 2C19) | IC50 (Thromboxane-A synthase) | Ki (Thromboxane-A synthase) | IC50 (Cytochrome P450 3A4) | Ki (Cytochrome P450 3A4)

CCN(C(C)=O)c1cccc(-c2ccnc3c(C#N)cnn23)c1 [ZALEPLON]
Not Active: IC50 (Substance-P receptor) | IC50 [1] | IC50 (Interstitial collagenase) | IC50 (Substance-K receptor) | IC50 [2] | Ki [2] | IC50 (Cytochrome P450 2C19) | Ki (Cytochrome P450 2C19) | IC50 (Thromboxane-A synthase) | IC50 (Cytochrome P450 3A4) | Ki (Cytochrome P450 3A4)

CN1C(=O)CN=C(c2ccccc2)c2cc([N+](=O)[O-])ccc21 [NIMETAZEPAM]
Not Active: IC50 (Substance-P receptor) | IC50 [1] | IC50 (Interstitial collagenase) | IC50 (Substance-K receptor) | IC50 [2] | Ki [2] | IC50 (Cytochrome P450 2C19) | Ki (Cytochrome P450 2C19) | IC50 (Thromboxane-A synthase) | IC50 (Cytochrome P450 3A4) | Ki (Cytochrome P450 3A4)

ClC(Cl)(Cl)Cl [CARBON TETRACHLORIDE]
Not Active: IC50 (Substance-P receptor) | IC50 [1] | IC50 (Interstitial collagenase) | IC50 (Substance-K receptor) | IC50 [2] | Ki [2] | IC50 (Cytochrome P450 2C19) | Ki (Cytochrome P450 2C19) | IC50 (Thromboxane-A synthase) | IC50 (Cytochrome P450 3A4) | Ki (Cytochrome P450 3A4)
